Tests used:
[1] = compared with albuterol, a short-acting hydrophilic beta-adrenergic agonist; cited from earlier work
[2] = system: non-obese adult subjects with central abdominal bulging; test: Phase 2 RESET trial: adverse effects and tolerability; format: in vivo, human; conditions: for Any Adverse Event Definitely or Possibly Related to Study Drug (incidence): 20 SC injections once a week for 8 weeks
Method: (§1) Methods: A randomized, double-blind, placebo-controlled study was conducted to evaluate the safety and efficacy of a composition comprising the long-acting beta-2 receptor agonist salmeterol xinafoate. This study was reviewed and approved by a central IRB (Chesapeake IRB, Columbia, Md.) and written informed consent was received from all study subjects. The study enrolled 513 adult subjects with central abdominal bulging at 31 investigative sites across the U.S. Subjects were required to be non-obese (BMI<30 kg/m^2), have a focal area of central abdominal bulging due to excess subcutaneous fat (˜400 cm^2 area around the umbilicus), have adequate skin elasticity, have at least a rating of “slight bulge, not flat” on both the 5-point Patient- and Clinician-Global Abdominal Perception Scales (P-GAPS and C-GAPS) at Screening and Day 1, and who were at least slightly dissatisfied with their abdominal bulging in the treatment area. The P-GAPS includes the ratings: flat, almost flat, slight bulge/not flat, […].
(§2) Subjects were randomized to receive 1 of 3 doses of salmeterol xinafoate (0.4, 1.0, or 4.0 μg total weekly dose) or placebo (0.9% Sodium Chloride Injection, USP) once a week for 8 weeks starting on Day 1 after all entry criteria had been satisfied. Randomization was based on a computer-generated, site-based randomization schedule, which was distributed to authorized, unblinded personnel at each site. Twenty, 1 mL weekly subcutaneous (SC) injections administered via a ½ inch 30 gauge needle were spaced 4 cm apart on the anterior abdomen between axial planes at +35 mm and −70 mm, relative to the umbilicus. Consistent injection placement was assured by the weekly application of a water-based temporary tattoo defining the location of the 20 administration injection sites. Efficacy endpoints included a Patient- and Clinician-Global Abdominal Perception Scale, a Patient and Clinician Photonumeric Scale (PPnS and CPnS) and duplicate abdominal circumference measurements (taken at +35 mm, 0 and −70 mm, relative to the umbilicus, using a standardized tape measurement (e.g., laser-guided) procedure).
Demographics & Safety Results: Subjects enrolled in the study were primarily female (81%; 418/513), white (86%; 440/513), with a mean age of 38 (18−71) years and a mean BMI of 23.4 (18.2−29.9) kg/m^2. […] Ninety-two percent completed the study per protocol; 6 subjects (1%) were lost to follow-up, 4 subjects (<1%) were terminated for protocol violation, 10 subjects (2%) withdrew consent and 21 subjects (4%) withdrew for miscellaneous causes. […] The most frequently reported treatment-emergent adverse effects related to study drug were mild and transient injection site events, including hematoma, erythema, contusion, and pain. The incidence of these adverse effects is reported in Table 1 (a single incidence (<1%) of an adverse event was reported randomly across organ systems and all treatment groups and is not reported in the table). These injection site events occurred with a similar frequency in subjects in the placebo group and in the salmeterol xinafoate groups and were considered to be related to the typical mechanical trauma of an injection procedure rather than the study drug itself.

[3] = system: central abdominal bulging due to excess subcutaneous fat; test: Phase 2 RESET trial: patient and clinician rating scales (P-GAPS, C-GAPS, PPnS, CPnS), composite responders; format: in vivo, human; conditions: 0.4 μg total weekly dose
Method: as §1, §2
A specific set of standardized instructions (e.g., patient positioning, posture, breathing, etc.) were followed for the collection of all ratings and measurements. Designated clinical site personnel were trained in person to perform each procedure; some procedures also included a training video. […] Specific to the laser-guided tape measure procedure, the reproducibility of the procedure beyond what is obtained with a standard manual tape measure was enhanced with the water-based tattoo on the anterior abdomen, a self-tensioning tape measure, a tripod-mounted laser level and electronic data capture to ensure the independent recording of circumferential measurements. […]

[4] = system: central abdominal bulging due to excess subcutaneous fat; test: Phase 2 RESET trial: abdominal circumference by laser-guided tape measure, and calculated abdominal volume; format: in vivo, human; conditions: 0.4 μg total weekly dose
Method: as §1, §2
A specific set of standardized instructions (e.g., patient positioning, posture, breathing, etc.) were followed for the collection of all ratings and measurements. Designated clinical site personnel were trained in person to perform each procedure; some procedures also included a training video. […] Specific to the laser-guided tape measure procedure, the reproducibility of the procedure beyond what is obtained with a standard manual tape measure was enhanced with the water-based tattoo on the anterior abdomen, a self-tensioning tape measure, a tripod-mounted laser level and electronic data capture to ensure the independent recording of circumferential measurements. Both the 5-point patient and clinician verbal scales (P-GAPS and C-GAPS) that assigned scores ranging from flat to big (or pronounced) bulge, as well as the 6-point patient and clinician photonumeric scales (PPnS and CPnS) that are a match-to-sample task in which an abdominal profile are selected from a series of 6 identical torsos with a progressively larger anterior abdominal bulge were specifically developed and validated to assess treatment effects in non-obese subjects with central abdominal bulging. Neither patients nor clinicians had access to the others' scale ratings and neither had access to previous scale scores. Final assessments on all outcome measures were performed 1 week after the last injections (Day 57±2 days).
All efficacy analyses used a repeated measures analysis of covariance (ANCOVA) model to determine differences between each active treatment group and placebo. […]

[5] = subjects weight neutral or lost weight (≦0 kg)

For OCc1cc(C(O)CNCCCCCCOCCCCc2ccccc2)ccc1O (stereo not shown) [salmeterol], the “Lipophilicity relative to albuterol” value [1] is listed as “at least 10,000 times”.
For OCc1cc(C(O)CNCCCCCCOCCCCc2ccccc2)ccc1O (stereo not shown) [salmeterol xinafoate], the “Injection Site Erythema (incidence)” value ([2]; 0.4 μg total weekly dose) was 2%, the “Injection Site Hematoma (incidence)” value ([2]; 0.4 μg total weekly dose) was 5% and the “Injection Site Hemorrhage (incidence)” value ([2]; 0.4 μg total weekly dose) was 0%. The “Injection Site Pain (incidence)” value ([2]; 0.4 μg total weekly dose) was 3%, the “Any Adverse Event Definitely or Possibly Related to Study Drug (incidence)” value ([2]; 0.4 μg total weekly dose) was 11% and the “Injection Site Erythema (incidence)” value ([2]; 1.0 μg total weekly dose) was 2%. For the same molecule, the “Injection Site Hematoma (incidence)” value ([2]; 1.0 μg total weekly dose) was 6%, the “Injection Site Hemorrhage (incidence)” value ([2]; 1.0 μg total weekly dose) was 0% and the “Injection Site Pain (incidence)” value ([2]; 1.0 μg total weekly dose) was 2%. For the same molecule, the “Any Adverse Event Definitely or Possibly Related to Study Drug (incidence)” value ([2]; 1.0 μg total weekly dose) was 12%, the “Injection Site Erythema (incidence)” value ([2]; 4.0 μg total weekly dose) was 0% and the “Injection Site Hematoma (incidence)” value ([2]; 4.0 μg total weekly dose) was 6%. For the same molecule, the “Injection Site Hemorrhage (incidence)” value ([2]; 4.0 μg total weekly dose) was 0%, the “Injection Site Pain (incidence)” value ([2]; 4.0 μg total weekly dose) was 2% and the “Any Adverse Event Definitely or Possibly Related to Study Drug (incidence)” value ([2]; 4.0 μg total weekly dose) was 12%. The Tolerability ([2]; 0.4, 1.0 and 4.0 μg total weekly dose, 20 SC injections into abdominal adipose tissue once a week for 8 weeks) was “well tolerated”, the “Significant adverse events during the study” value ([2]; all dose groups, 8 weeks) was “no significant adverse events” and the “Change from baseline across all rating instruments (P-GAPS, C-GAPS, PPnS, CPnS)” value [3] was “consistent mean reductions from baseline”. For the same molecule, the “Composite responders (2-point improvement on P-GAPS and 2-point improvement on CPnS) compared to placebo” value [3] was “significantly more responders”, the “% composite responders (1-point improvement on P-GAPS and 2-point improvement on CPnS)” value ([3]; all subjects) was 16% and the “% composite responders (1-point improvement on P-GAPS and 2-point improvement on CPnS)” value [3, 5] was 22%. The “Change in abdominal volume from baseline” value ([4]; Day 57, all subjects, +35 mm to −70 mm relative to the umbilicus, placebo −90 mL, p=0.001) was -192 mL, the “Mean change in abdominal circumference at the umbilicus from baseline” value ([4]; Day 57, all subjects, placebo −0.7 cm, p=0.001) was −1.6 cm and the “Mean reduction in abdominal volume relative to placebo” value ([4]; all subjects) was -102 mL. For the same molecule, the “Mean reduction in umbilical circumference relative to placebo” value ([4]; all subjects) was −0.9 cm, the “Mean reduction in abdominal volume from baseline” value [4, 5] was -329 mL and the “Mean reduction in abdominal volume relative to placebo” value [4, 5] was -175 mL. For the same molecule, the “Mean reduction in umbilical circumference from baseline” value [4, 5] was −2.7 cm, the “Mean reduction in umbilical circumference relative to placebo” value [4, 5] was −1.6 cm and the “Dose comparison of efficacy across most outcome measures” value ([4]; lowest dose, 0.02 μg/mL) was “the most efficacious”.

Reference: patent US20160089346A1, “METHOD OF TREATMENT FOR BODY CONTOURING” (Neothetics, Inc., priority 2014, published 2016)
